Measurements reported in ChEMBL document CHEMBL2163324, “Function of the D-alanine:D-alanine ligase lid loop: a molecular modeling and bioactivity study” (J Med Chem, 2012).

Tests used:
Escherichia coli [1] = test: Inhibition of Escherichia coli DdlB at 500 uM after 20 mins by malachite green staining-based colorimetric assay
[2] = Inhibition of Escherichia coli DdlB after 20 mins by malachite green staining-based colorimetric assay
[3] = Competitive inhibition of Escherichia coli DdlB after 20 mins by malachite green staining-based colorimetric assay in presence of ATP
Escherichia coli [4] = test: Inhibition of Escherichia coli DdlB at 250 uM after 20 mins by malachite green staining-based colorimetric assay

| Structure (SMILES) | inhibition (Escherichia coli [1]) [%] | IC50 ([2]; read-out: IC50) [µM] | Ki [3] [µM] | IC50 [2] | inhibition (Escherichia coli [4]) [%] |
| --- | --- | --- | --- | --- | --- |
| O=C1NC(=O)C(=C(O)Nc2ccccc2)C(=O)N1 | 63 | 611 | – | – | – |
| N/C(=N\OC(=O)Nc1cccc(Cl)c1)c1ccno1 | 48 | 378 | 326 | – | – |
| N/C(=N/OC(=O)c1ccc2nsnc2c1)c1ncon1 | 78 | – | – | ND(Insoluble) | – |
| Cc1cc(C(=N)NOC(=O)Nc2ccc(Cl)cc2)no1 | 61 | 656 | – | – | – |
| N/C(=N\OC(=O)Nc1ccc(Cl)cc1)c1cnccn1 | 77 | – | – | ND(Insoluble) | – |
| COc1ccc2c(C)nc(Nc3nc(O)cc(O)n3)nc2c1 | – | – | – | ND(Insoluble) | 70 |
| O=C(N/N=C/c1cc(=O)[nH]c(O)n1)c1ccncc1 | 62 | – | – | ND(Insoluble) | – |
